Values of other authors, collected in PMC3635145 (Journal of medicinal chemistry, 2013).

Target: T1, TbrPDEB1 (Trypanosoma brucei, UniProt Q8WQX9)
T1 sequence (Q8WQX9 1-930): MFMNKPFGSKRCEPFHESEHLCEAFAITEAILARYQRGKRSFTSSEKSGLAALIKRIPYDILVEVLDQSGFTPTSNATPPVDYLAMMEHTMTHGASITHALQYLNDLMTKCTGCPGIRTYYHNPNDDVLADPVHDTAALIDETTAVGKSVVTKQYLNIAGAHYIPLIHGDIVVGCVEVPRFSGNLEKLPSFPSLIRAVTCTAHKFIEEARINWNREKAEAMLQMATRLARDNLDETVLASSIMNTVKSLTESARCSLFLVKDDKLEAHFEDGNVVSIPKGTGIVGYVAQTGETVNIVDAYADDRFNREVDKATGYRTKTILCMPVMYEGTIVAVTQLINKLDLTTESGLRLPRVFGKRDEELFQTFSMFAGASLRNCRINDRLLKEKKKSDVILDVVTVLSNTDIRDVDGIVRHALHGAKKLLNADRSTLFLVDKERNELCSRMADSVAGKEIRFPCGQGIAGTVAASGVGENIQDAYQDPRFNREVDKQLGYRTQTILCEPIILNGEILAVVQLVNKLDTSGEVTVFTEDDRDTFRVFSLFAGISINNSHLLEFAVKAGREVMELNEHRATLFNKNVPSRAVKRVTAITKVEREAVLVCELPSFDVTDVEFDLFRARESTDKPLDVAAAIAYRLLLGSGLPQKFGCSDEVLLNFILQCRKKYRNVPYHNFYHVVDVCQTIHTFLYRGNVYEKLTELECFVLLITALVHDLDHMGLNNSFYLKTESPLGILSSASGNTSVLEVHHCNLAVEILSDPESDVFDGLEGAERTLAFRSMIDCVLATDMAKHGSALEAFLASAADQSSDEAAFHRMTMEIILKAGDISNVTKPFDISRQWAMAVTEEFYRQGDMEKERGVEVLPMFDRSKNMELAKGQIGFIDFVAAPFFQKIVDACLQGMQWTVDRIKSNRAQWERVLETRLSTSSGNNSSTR

COc1ccc(C(=O)CC(C)C)cc1OCCCCO [compound 5, 1-(3-(4-hydroxybutoxy)-4-methoxyphenyl)-3-methylbutan-1-one]
TbrPDEB1 inhibition (in words): appears to inhibit TbrPDEB1 to some extent
